Results: patent US20240116910A1, “Heterocycles as WIP1 Inhibitors” (PMV Pharmaceuticals, Inc., priority 2022, published 2024)
pIC50: −log10 of the molar value.

Each compound was assayed against recombinant His-tag Wip1(2-420) protein (amino acids #2-420) (Homo sapiens (Human), UniProt O15297) (assay: Wip1(2-420) phosphatase enzyme FDP assay). Settings: fluorescein diphosphate (FDP) substrate, RT 2 hours, fluorescence Ex485/Em535; read-out: WIP1 (Truncated 2-420) FDP Assay: IC50.
Assay type: biochemical
Procedure: The Human Wip1 (2-420, aa 2-420) or Wip1 full length (aa 1-605) DNA sequence was codon optimized and synthesized by Genscript for insect cell expression. The open reading frame of Wip1(2-420) with a N-terminal-His6 affinity tag followed by a TEV cleavage site was subcloned sites into the pFastBac1 expression vector. The recombinant bacmid DNA was transfected in Sf9 insect cells for baculovirus production. After 72 hours infection, the Sf9 cells were harvested by centrifugation and resuspended in lysis buffer containing 50 mM Tris/HCl, pH 8.0, 500 mM NaCl, 20% glycerol, Benzonase 0.5% CHAPS and Roche cOmplete™ EDTA free protease inhibitors. Cells were disrupted with microfluidizer and the debris was removed by centrifugation at 185,000 g for 1 hour. The supernatant was subjected to HisTrap FF for affinity purification. Proteins were eluted with a linear gradient of 0-500 mM imidazole in HisTrap buffer containing 50 mM Tris/HCl, pH 8.0, 500 mM NaCl and 20% glycerol, 0.05% CHAPS. The eluted protein was dialyzed against dialysis buffer (20 mM MES, 100 mM NaCl, 20% glycerol, 0.5 mM TCEP, 0.05% CHAPS) followed purification via HiTrap SP HP column. The protein was eluted with a gradient of 100 mM-2 M NaCl in dialysis buffer. His6-[…] was finally concentrated and loaded onto a size-exclusion column (NiLoad 16/600 Superdex 200 pg, GE Healthcare) pre-equilibrated with 50 mM MOPS (pH 7.5), 200 mM NaCl, 20% glycerol, 1 mM TCEP, 0.05% CHAPS and 0.1 mM EGTA. The peak fractions containing purified Nis6-Wip1(2-420) were pooled and concentrated to 1.0 mg/mL and flash frozen at −80° C.
Wip1 Length and Wip1(2-420) Phosphatase Enzyme FDP Assays.
Test compounds (252 mM stock in DMSO) were diluted 3 folds in series in DMSO and 1.2 μl per well were added into 384-well polypropylene black plates (Nunc). Twelve μl per well of Assay Buffer (100 mM NaCl, 50 mM MOPS, pH 7.5, 0.8 mM CHAPS, 0.1 mM EGTA, 30 mM MgCl2, 0.3 mM TCEP, 0.2 mg/mL BSA) was added followed by […] per well of 50.4 nM recombinant His-tag Wip1 full length protein (amino acids #1-605) or recombinant His-tag Wip1(2-420) protein (amino acids #2-420) in Assay Buffer and the plate was incubated at RT (22° C.) for 5 min. Ten mM of fluorescein diphosphate (FDP) in DMSO was diluted to […] in Assay Buffer and […] per well was added to the plate and incubated at RT (22° C.) for 2 hours. […] per well of 64.1 mM EDTA in water were added to stop the enzyme reaction. The plate was centrifuged at 1,200 rpm (Eppendorf 5810R Plate centrifuge) for 1 minute and fluorescence intensity (Ex485/Em535) was measured on Perkin Elmer Victor Reader. EC50 values were calculated using either Prism (GraphPad) or ActivityBase software (IDBS), The IC50 results are provided in Table M.

Sequence of recombinant His-tag Wip1(2-420) protein (amino acids #2-420) (O15297 2-420): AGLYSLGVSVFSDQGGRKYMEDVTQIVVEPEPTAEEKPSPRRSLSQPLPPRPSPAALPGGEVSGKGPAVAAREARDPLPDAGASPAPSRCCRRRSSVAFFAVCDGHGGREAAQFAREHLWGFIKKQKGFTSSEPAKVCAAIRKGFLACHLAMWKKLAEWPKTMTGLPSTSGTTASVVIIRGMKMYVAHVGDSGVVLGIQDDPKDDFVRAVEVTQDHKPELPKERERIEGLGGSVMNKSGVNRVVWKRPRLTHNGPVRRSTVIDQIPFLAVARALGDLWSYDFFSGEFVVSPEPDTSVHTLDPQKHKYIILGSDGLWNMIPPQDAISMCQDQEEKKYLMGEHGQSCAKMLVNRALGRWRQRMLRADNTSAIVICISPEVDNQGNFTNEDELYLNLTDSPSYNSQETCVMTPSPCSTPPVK

pIC50 | SMILES
8.30 | Cc1ncc(Cl)cc1N[C@@H](C)c1ccc(C(=O)N[C@@H](CC2CCCC2)C(=O)NC2CCC2)s1 [Compound 87, (2S)-2-({5-[(1S)-1-[(5-chloro-2-methylpyridin-3-yl)amino]ethyl]thiophen-2-yl}formamido)-N-cyclobutyl-3-cyclopentylpropanamide]
8.22 | Cc1ncc(Cl)cc1N[C@@H](C)c1ccc(C(=O)N[C@@H](CC2CCCC2)C(=O)NC2CCC2C)s1 (stereo partly drawn) [Compound 88, (2S)-2-({5-[(1S)-1-[(5-chloro-2-methylpyridin-3-yl)amino]ethyl]thiophen-2-yl}formamido)-3-cyclopentyl-N-(2-methylcyclobutyl)propanamide]
7.72 | COC(=O)CNC(=O)[C@H](CC1CCCC1)NC(=O)c1ccc([C@H](C)Nc2cc(Cl)cnc2C)s1 [Compound 91, methyl 2-[(2S)-2-({5-[(1S)-1-[(5-chloro-2-methylpyridin-3-yl)amino]ethyl]thiophen-2-yl}formamido)-3-cyclopentylpropanamido]acetate]
6.68 | Cc1ncc(Cl)cc1N[C@@H](C)c1ccc(C(=O)N[C@@H](CC2CCCC2)C(=O)NCC(=O)O)s1 [Compound 93, 2-[(2S)-2-({5-[(1S)-1-[(5-chloro-2-methylpyridin-3-yl)amino]ethyl]thiophen-2-yl}formamido)-3-cyclopentylpropanamido]acetic acid]
8.22 | Cc1ncc(Cl)cc1N[C@@H](C)c1ccc(C(=O)N[C@@H](CC2CCCC2)C(=O)Nc2cnn(C)c2)s1 [Compound 98, (2S)-2-({5-[(1S)-1-[(5-chloro-2-methylpyridin-3-yl)amino]ethyl]thiophen-2-yl}formamido)-3-cyclopentyl-N-(1-methyl-1H-pyrazol-4-yl)propanamide]
8.15 | Cc1ncc(Cl)cc1N[C@@H](C)c1ccc(C(=O)N[C@@H](CC2CCCC2)C(=O)N[C@H]2C[C@@H](C)C2)s1 [Compound 99, (2S)-2-({5-[(1S)-1-[(5-chloro-2-methylpyridin-3-yl)amino]ethyl]thiophen-2-yl}formamido)-3-cyclopentyl-N-[(1r,3s)-3-methylcyclobutyl]propanamide]
8.40 | Cc1ncc(Cl)cc1N[C@@H](C)c1ccc(C(=O)N[C@@H](CC2CCCCC2)C(=O)NC2CC2)s1 [Compound 107, (2S)-2-({5-[(1S)-1-[(5-chloro-2-methylpyridin-3-yl)amino]ethyl]thiophen-2-yl}formamido)-3-cyclohexyl-N-cyclopropylpropanamide]
8.10 | Cc1ncc(Cl)cc1N[C@@H](C)c1ccc(C(=O)N[C@@H](CC2CCCCC2)C(=O)NC23CC(C2)C3)s1 [Compound 109, (2S)-N-{bicyclo[1.1.1]pentan-1-yl}-2-({5-[(1S)-1-[(5-chloro-2-methylpyridin-3-yl)amino]ethyl]thiophen-2-yl}formamido)-3-cyclohexylpropanamide]

Second part, the compound before the results:

SMILES | pIC50
C[C@@H](c1ccc(C(=O)N[C@@H](CC2CCCC2)C(=O)NC2CC2)s1)N(C)c1cncc(Cl)c1 [Compound 89, (2S)-2-({5-[(1S)-1-[(5-chloropyridin-3-yl)(methyl)amino]ethyl]thiophen-2-yl}formamido)-3-cyclopentyl-N-cyclopropylpropanamide] | 6.99
C[C@H](c1ccc(C(=O)N[C@@H](CC2CCCC2)C(=O)NC2CC2)s1)N(C)c1cncc(Cl)c1 [Compound 90, (2S)-2-({5-[(1R)-1-[(5-chloropyridin-3-yl)(methyl)amino]ethyl]thiophen-2-yl}formamido)-3-cyclopentyl-N-cyclopropylpropanamide] | 7.96
Cc1ncc(Cl)cc1N[C@@H](C)c1ccc(C(=O)N[C@@H](CC2CCC3CC32)C(=O)NC2CC2)s1 (stereo partly drawn) [Compound 92, (2S)-3-{bicyclo[3.1.0]hexan-2-yl}-2-({5-[(1S)-1-[(5-chloro-2-methylpyridin-3-yl)amino]ethyl]thiophen-2-yl}formamido)-N-cyclopropylpropanamide] | 8.00
COC(=O)[C@H]1C[C@H](NC(=O)[C@H](CC2CCCC2)NC(=O)c2ccc([C@H](C)Nc3cc(Cl)cnc3C)s2)C1 [Compound 94, methyl (1r,3r)-3-[(2S)-2-({5-[(1S)-1-[(5-chloro-2-methylpyridin-3-yl)amino]ethyl]thiophen-2-yl}formamido)-3-cyclopentylpropanamido]cyclobutane-1-carboxylate] | 8.30
Cc1ncc(Cl)cc1N[C@@H](C)c1ccc(C(=O)N[C@@H](CC2CCCC2)C(=O)N[C@H]2C[C@H](C(=O)O)C2)s1 [Compound 95, (1r,3r)-3-[(2S)-2-({5-[(1S)-1-[(5-chloro-2-methylpyridin-3-yl)amino]ethyl]thiophen-2-yl}formamido)-3-cyclopentylpropanamido]cyclobutane-1-carboxylic acid] | 8.00
C[C@@H](c1ccc(C(=O)N[C@@H](CC2CCCC2)C(=O)NC23CC(C2)C3)s1)N(C)c1cncc(Cl)c1 [Compound 96, (2S)-N-{bicyclo[1.1.1]pentan-1-yl}-2-({5-[(1S)-1-[(5-chloropyridin-3-yl)(methyl)amino]ethyl]thiophen-2-yl}formamido)-3-cyclopentylpropanamide] | 7.12
C[C@H](c1ccc(C(=O)N[C@@H](CC2CCCC2)C(=O)NC23CC(C2)C3)s1)N(C)c1cncc(Cl)c1 [Compound 97, (2S)-N-{bicyclo[1.1.1]pentan-1-yl}-2-({5-[(1R)-1-[(5-chloropyridin-3-yl)(methyl)amino]ethyl]thiophen-2-yl}formamido)-3-cyclopentylpropanamide] | 7.96
COC(=O)c1ncc(Cl)cc1N[C@@H](C)c1ccc(C(=O)N[C@@H](CC2CCCC2)C(=O)NC2CC2)s1 [Compound 102, methyl 5-chloro-3-{[(1S)-1-(5-{[(1S)-2-cyclopentyl-1-(cyclopropylcarbamoyl)ethyl]carbamoyl}thiophen-2-yl)ethyl]amino}pyridine-2-carboxylate] | 8.00
COC(=O)c1ncc(Cl)cc1N[C@H](C)c1ccc(C(=O)N[C@@H](CC2CCCC2)C(=O)NC2CC2)s1 [Compound 103, methyl 5-chloro-3-{[(1R)-1-(5-{[(1S)-2-cyclopentyl-1-(cyclopropylcarbamoyl)ethyl]carbamoyl}thiophen-2-yl)ethyl]amino}pyridine-2-carboxylate] | 6.28
Cc1ncc(Cl)cc1N[C@@H](C)c1ccc(C(=O)N[C@@H](CC2CCCC2)C(=O)NC2CC3(CCC3)C2)s1 [Compound 104, (2S)-2-({5-[(1S)-1-[(5-chloro-2-methylpyridin-3-yl)amino]ethyl]thiophen-2-yl}formamido)-3-cyclopentyl-N-{spiro[3.3]heptan-2-yl}propanamide] | 8.22
C[C@H](Nc1cc(Cl)cnc1CO)c1ccc(C(=O)N[C@@H](CC2CCCC2)C(=O)NC2CC2)s1 [Compound 105, (2S)-2-({5-[(1S)-1-{[5-chloro-2-(hydroxymethyl)129yridine-3-yl]amino}ethyl]thiophen-2-yl}formamido)-3-cyclopentyl-N-cyclopropylpropanamide] | 7.74
C[C@@H](Nc1cc(Cl)cnc1CO)c1ccc(C(=O)N[C@@H](CC2CCCC2)C(=O)NC2CC2)s1 [Compound 106, (2S)-2-({5-[(1R)-1-{[5-chloro-2-(hydroxymethyl)129yridine-3-yl]amino}ethyl]thiophen-2-yl}formamido)-3-cyclopentyl-N-cyclopropylpropanamide] | 6.33
Cc1ncc(Cl)cc1N[C@@H](C)c1ccc(C(=O)N[C@@H](CC2CCCCC2)C(=O)N[C@H]2C[C@H](F)C2)s1 [Compound 108, (2S)-2-({5-[(1S)-1-[(5-chloro-2-methylpyridin-3-yl)amino]ethyl]thiophen-2-yl}formamido)-3-cyclohexyl-N-[(1r,3r)-3-fluorocyclobutyl]propanamide] | 8.30
